The values that follow are results of earlier work, collected in patent US20220347065A1, “ANTIPERSPIRANT EMULSION” (Conopco, Inc., d/b/a UNILEVER, priority 2019, published 2022).

This data set deals with Staphylococcus epidermidis. As to conditions: 80% or greater reduction in growth, 16 to 24 hours at 37° C.
On to `Oc1cc(Cl)ccc1Oc1ccc(Cl)cc1Cl` [triclosan, 2′,4,4′-trichloro,2-hydroxy-diphenyl ether], for which the MIC was 0.01 to 10 µg/mL.
For the molecule `CCO` [ethanol], the MIC entry is on record as “greater than 1 mg·ml^−1”.
As to `CC(C)=CCCC(C)=CCCC(C)=CCO` [farnesol, 3,7,11-trimethyldodeca-2,6,10-trienol], the MIC entry is reported as “ca. 25 μg·ml^−1”.

As a reminder, the MIC is the smallest concentration in the dilution series that meets the test's criterion for growth inhibition.
